{"source": "patent US9951039B2", "about": "“Pyrimidines for treatment of bacterial infections” (The Hong Kong Polytechnic University, priority 2016, dated 2018)", "key": {"[1]": {"tested_on": "S. aureus ATCC BAA-1717 (methicillin resistant)", "assay": "MIC against clinically isolated strain 2", "format": "cell-based", "conditions": "Staphylococcus aureus, ATCCBAA1717", "protocol": "(§1) Procedure of Antimicrobial susceptibility test: The MIC value of compounds was measured in the antimicrobial susceptibility test using the broth microdilution procedure in accordance with the CLSI guidelines.^21 Cation-adjusted Mueller Hinton broth (CA-MHB) was used for all the S. aureus strains in the assay. Cells in exponential phase of growth were diluted to approximately 5×10^5 cfu/mL. Stock solutions of each compound were freshly dissolved in dimethyl sulfoxide (DMSO). Then, serial dilutions of each compound in CA-MHB medium were added into 96-well microplate. The final percentage of DMSO in the assay was 1%. Control experiments were performed with 1% DMSO instead of the compound solution. After being incubated at 37° C. for 18 h, OD600 value of cells was measured on a microplate reader and the percentage of bacterial cell inhibition with respect to controls was calculated. The MIC value was defined as the lowest compound concentration at which the growth of bacteria was inhibited by ≥90%. Three independent assays were performed for each compound.\n(§2) Results: Three compounds, namely 14av_amine16, 14dv_amine16 and 14dv_amine06, were selected to be tested against nine in-house clinically isolated bacterial strains including S. aureus ATCC29247, which is an ampicillin resistant strain, S. aureus ATCC BAA-41, ATCC BAA-1717, ATCC BAA-1720, ATCC 43300 which are methicillin resistant strains and four USA300 strains, (#417, #757, #1799 and #2690), which are the predominant strain type of community-associated MRSA strains in the United States."}, "[2]": {"tested_on": "S. aureus ATCC BAA-1720 (methicillin resistant)", "assay": "MIC against clinically isolated strain 3", "format": "cell-based", "conditions": "Staphylococcus aureus, ATCCBAA1720", "protocol": "as §1, §2"}, "[3]": {"tested_on": "S. aureus ATCC BAA-41 (methicillin resistant)", "assay": "MIC against clinically isolated strain 4", "format": "cell-based", "conditions": "Staphylococcus aureus, ATCCBAA41", "protocol": "as §1, §2"}, "[4]": {"tested_on": "S. aureus ATCC 43300 (methicillin resistant)", "assay": "MIC against clinically isolated strain 5", "format": "cell-based", "conditions": "Staphylococcus aureus, ATCC43300", "protocol": "as §1, §2"}, "[5]": {"tested_on": "USA300 #417 (community-associated MRSA)", "assay": "MIC against clinically isolated strain 6", "format": "cell-based, S. aureus", "conditions": "Staphylococcus aureus", "protocol": "as §1, §2"}, "[6]": {"tested_on": "USA300 #757 (community-associated MRSA)", "assay": "MIC against clinically isolated strain 7", "format": "cell-based, S. aureus", "conditions": "Staphylococcus aureus", "protocol": "as §1, §2"}, "[7]": {"tested_on": "USA300 #1799 (community-associated MRSA)", "assay": "MIC against clinically isolated strain 8", "format": "cell-based, S. aureus", "conditions": "Staphylococcus aureus", "protocol": "as §1, §2"}, "[8]": {"tested_on": "USA300 #2690 (community-associated MRSA)", "assay": "MIC against clinically isolated strain 9", "format": "cell-based, S. aureus", "conditions": "Staphylococcus aureus", "protocol": "as §1, §2"}, "[9]": {"tested_on": "clinically isolated S. aureus strains", "assay": "MIC against the nine clinically isolated S. aureus strains", "format": "cell-based", "conditions": "Staphylococcus aureus; most of the MRSA strains", "protocol": "as §1, with “compound. […]” for “compound.”"}}}
{"smiles": "COc1cccc(OC)c1C(=O)N[C@@H]1C(=O)N2[C@@H]1SC(C)(C)[C@@H]2C(=O)O", "note": "[Methicillin, reference compound]", "values": [{"measurement": "MIC", "setting": "[1]", "value": "> 30", "unit": "µM"}, {"measurement": "MIC", "setting": "[2]", "value": "> 30", "unit": "µM"}, {"measurement": "MIC", "setting": "[3]", "value": "> 30", "unit": "µM"}, {"measurement": "MIC", "setting": "[4]", "value": "> 30", "unit": "µM"}, {"measurement": "MIC", "setting": "[5]", "value": "> 30", "unit": "µM"}, {"measurement": "MIC", "setting": "[6]", "value": 30, "unit": "µM"}, {"measurement": "MIC", "setting": "[7]", "value": 30, "unit": "µM"}, {"measurement": "MIC", "setting": "[8]", "value": 15, "unit": "µM"}, {"measurement": "MIC", "setting": "[9]", "value": "> 30", "unit": "µM"}]}
